# Laboratory results: EP2135612A1, “Use of ATP in the preparation of a medicament for treating, alleviating and/or enhancing survival of pre-terminal cancer patients” (Universiteit van Maastricht, priority 2008, dated 2009)
# Legend:
# [1] = test system: stage IIIB/IV NSCLC patients; conditions: 15 chemotherapy-naïve stage IIIB/IV NSCLC patients; one to four 96-hour cycles i.v. ATP 50-65 µg/kg.min at 4-week intervals; cited from earlier work
# IL-10 = conditions: ex vivo stimulated whole blood; cited from earlier work
# [2] = test system: pre-terminal cancer patients; assay: Randomized clinical trial: survival (Cox regression, Kaplan-Meier); assay type: in vivo
# Method: (§1) Ninety-nine pre-terminal cancer patients (estimated life expectancy 1-6 mo) with mixed tumor types were randomly allocated to receive either ATP i.v. weekly (8 h/wk, max. 50 µg/kg.min) for 8 weeks, or no ATP (control group). Nutritional status parameters were assessed until 8 weeks, and analyzed by repeated-measures analysis of covariance. Cox proportional hazards models were fitted to assess the effect of ATP on short term (0-8 weeks) and long term (0-6 months) survival.
# (§2) After baseline measurements, patients were stratified for center, tumor type, and weight loss (≤5% vs. >5% over past 6 months), and then randomly assigned to receive either usual care, standard nutritional advice and ATP (ATP group), or usual care and standard nutritional advice alone (control) group), using computer-generated random numbers with permutation blocks of four. In both groups, nutritional status parameters and co-interventions were assessed until 8 weeks.
# (§3) Patients allocated to the ATP group received weekly ATP infusions during 8-10 hours over a period of 8 weeks (21). The first ATP infusion was offered under medical supervision at the day care center of the participating hospitals. ATP infusions were started at a dose rate of 20 µg/kg·min and increased in steps of 10 µg/kg·min per 10 minutes, until reaching a maximum dose rate of 50 µg/kg·min, or the maximally tolerated dose (MTD) if this was lower, in case of side effects. Thereafter, ATP was Infused at a continuous rate. Subsequent infusions were given at MTD in the patient's home.
# Cox regression models were fitted including interaction terms between treatment and dummy variables for short term (i.e. 0-8 wks) and long term survival (i.e. 0-6 mo; dummy variables for 0-8 wks and 8 wks-6 mo were combined into a single dummy variable (0-6 mo) since Cox proportional hazards assumption was tested and not rejected). Median survival time was determined by extrapolation from confounder-adjusted Kaplan Meier plots. Because of previously shown survival benefit of ATP treatment in weight-losing stage IIIB NSCLC patients (18), we also performed stratified analyses in weight-stable and weight-losing patients separately defined as ≤5% or >5% weight loss over the past 6 months (22).
# All models were appropriately adjusted for confounders. Two-tailed p-values <0.05 were considered statistically significant.
# [3] = test system: pre-terminal cancer patients; assay: Randomized clinical trial: nutritional status (anthropometric measurements, nutritional intake) during the 8-week ATP intervention; assay type: in vivo
# Method: as §1, §2, §3
# Body height was determined using a flexible measuring tape. Body weight was measured without shoes, using an electronic scale (Soehnle 7407 Translucia, Germany). Triceps skin fold thickness was measured in triplicate at the dominant arm, with a Holtain® skin fold caliper (CMS weighing equipment LTD, London UK), and the median used for further calculations. Mid-upper arm circumference was measured in duplicate at the dominant side with a flexible measuring tape, and the mean value was used for further calculations.
# In order to exclude inter-observer variability, longitudinal measurements in one patient were performed by one observer. Nutritional intake was assessed by a 3-day food diary, including meal preparation details, and checked by an experienced dietician. Intake of energy and protein was calculated using the Dutch Food Composition Table 2001 (NEVO, The Hague, The Netherlands), by the Software Program Komeet (version 4.0.58; BaS Nutrition Software, Arnhem, The Netherlands).
# Data were doubly entered and analyzed according to the intention-to-treat principle. Curves were fitted to describe the time course of nutritional status parameters, and differences over time between the two groups appraised by repeated measurement analysis of covariance, using SAS Proc Mixed version 9.1 (SAS Institute Inc., Cary, NC, USA). Independent variables were the treatment indicator variable, the baseline measurement, measurement time, and the interaction between time and treatment. Statistical significance of treatment effects was assessed by testing the interaction between time and treatment. For weight analyses, patients with oedema and/or ascites were excluded. Because of the favorable previous results in patients with lung cancer (17), all analyses were repeated for this subgroup separately.
# TNF-α = conditions: ex vivo stimulated whole blood; via P2Y11 receptor; cited from earlier work
# [4] = test system: patients with non-small-cell lung cancer (NSCLC); conditions: cited from earlier work
structure (smiles),measurement,setting,value
"Nc1ncnc2c1ncn2[C@@H]1O[C@H](COP(=O)(O)OP(=O)(O)OP(=O)(O)O)[C@@H](O)[C@H]1O [ATP, adenosine 5'-triphosphate]",stable disease,[1],8 patients
same,IL-10 release,IL-10,enhanced
same,patients still alive on the census date,"[2]; census date 10 September 2007, ATP group n=51",6 patients
same,"HR, survival","[2]; lung cancer patients with >5% overall weight loss, p=0.052",0.21
same,"HR, survival 0-8 weeks",[2]; patients with lung cancer (n=44),0.17
same,"HR, survival 0-6 months","[2]; patients with lung cancer (n=44), p=0.025",0.35
same,"HR of ATP vs. control, short-term (0-8 weeks) survival","[2]; total group (ATP n=51; control n=48), p=0.037",0.40
same,Median survival,"[2]; total group, ATP group, extrapolated from confounder-adjusted Kaplan Meier plots",150 days
same,"HR, long term survival (0-6 months)","[2]; total group, p=0.26, not significant",0.71
same,effect on survival,[2]; weight-losing patients (>5% weight loss over past 6 months),No significant effect
same,"HR, survival during the 8-week intervention","[2]; weight-stable patients (≤5% weight loss over past 6 months; ATP n=33; control n=31), p=0.001",0.20
same,"HR, long term survival (0-6 months)","[2]; weight-stable patients, p=0.014",0.40
same,"Weight, change per 8 weeks, ATP group Estimate","[3]; ATP i.v. weekly 8-10 h, max. 50 µg/kg·min, 8 weeks, n=26, oedema/ascites excluded",-2.62 kg
same,"Triceps skin fold thickness, change per 8 weeks, ATP group Estimate","[3]; ATP i.v. weekly, max. 50 µg/kg·min, 8 weeks, n=48",-1.84 mm
same,"Mid-upper arm circumference, change per 8 weeks, ATP group Estimate","[3]; ATP i.v. weekly, max. 50 µg/kg·min, 8 weeks, n=49",-2.24 cm
same,"intake of energy and protein, difference between the two groups","[3]; ATP vs. control, 8 weeks, 3-day food diary",No statistically significant difference
same,"Triceps skin fold thickness, Between group difference Estimate per 8 weeks","[3]; ATP vs. control, p=0.009",1.76 mm
same,TNF-α release,TNF-α,inhibited
same,"effects on nutritional intake, body weight, fat and muscle mass","[4]; ATP infusions over 30 h at 2- to 4-week intervals, max. 75 µg/kg.min",marked beneficial effects
same,survival,[4]; weight-losing patients with stage IIIB NSCLC,highly significant survival benefit
